From PubChem BioAssay AID2060505 (Molecular Pharmacology Branch, DTP, NCI, 2025)

System: 633275-114-R-J1-PDC complex spheroids, viability
Assay: Anticancer human tumor 633275-114-R-J1-PDC patient-derived endometrial adenocarcinoma cell line growth inhibition [GQUAD]
Details: for IC50: curve of first compound; for viability, T/C: stronger effect = lower value; active = viability on the fitted dose curve at most 10% of control; inactive = the rest
Summary of the method: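 Tumor cells were grown as complex spheroids with HUVEC endothelial cells and mesenchymal stem cells as stroma. G-quadruplex stabilizers were combined with targeted agents over half-log dilutions from near the clinical Cmax, or from 10 microM.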

[1] = second compound 0.0316 µM, first compound 0.0316 µM
[2] = second compound 0.0316 µM, first compound 0.1 µM
[3] = second compound 0.0316 µM, first compound 0.316 µM
[4] = second compound 0.0316 µM, first compound 1 µM
[5] = second compound 0.0316 µM, first compound 3.16 µM
[6] = second compound 0.0316 µM, first compound 10 µM
[7] = second compound 0.1 µM, first compound 0.0316 µM
[8] = second compound 0.1 µM, first compound 0.1 µM
[9] = second compound 0.1 µM, first compound 0.316 µM
[10] = second compound 0.1 µM, first compound 1 µM
[11] = second compound 0.1 µM, first compound 3.16 µM
[12] = second compound 0.1 µM, first compound 10 µM
[13] = second compound 0.316 µM, first compound 0.0316 µM
[14] = second compound 0.316 µM, first compound 0.1 µM
[15] = second compound 0.316 µM, first compound 0.316 µM
[16] = second compound 0.316 µM, first compound 1 µM
[17] = second compound 0.316 µM, first compound 3.16 µM
[18] = second compound 0.316 µM, first compound 10 µM
[19] = second compound 1 µM, first compound 0.0316 µM
[20] = second compound 1 µM, first compound 0.1 µM
[21] = second compound 1 µM, first compound 0.316 µM
[22] = second compound 1 µM, first compound 1 µM
[23] = second compound 1 µM, first compound 3.16 µM
[24] = second compound 1 µM, first compound 10 µM
[25] = second compound 3.16 µM, first compound 0.0316 µM
[26] = second compound 3.16 µM, first compound 0.1 µM
[27] = second compound 3.16 µM, first compound 0.316 µM
[28] = second compound 3.16 µM, first compound 1 µM
[29] = second compound 3.16 µM, first compound 3.16 µM
[30] = second compound 3.16 µM, first compound 10 µM
[31] = second compound 10 µM, first compound 0.0316 µM
[32] = second compound 10 µM, first compound 0.1 µM
[33] = second compound 10 µM, first compound 0.316 µM
[34] = second compound 10 µM, first compound 1 µM
[35] = second compound 10 µM, first compound 3.16 µM
[36] = second compound 10 µM, first compound 10 µM
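Also: spheroids exposed to the agents for seven days.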
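For viability, T/C in this document: percent of DMSO vehicle control viability which is 100%.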

CC1COCCN1c1cc(C2(O)CC3CCC(C2)O3)c2cnn(-c3ccn[nH]3)c2n1 (stereo unspecified) + Cc1cnc(CNC(=O)c2c(=O)c3ccc(N4CCCN(C)CC4)nc3n3c2sc2ccccc23)cn1
inactive: viability, T/C [1] 37.6% | viability, T/C [2] 31.2% | viability, T/C [3] 25% | viability, T/C [4] 19.6% | viability, T/C [5] 12.4% | viability, T/C [7] 38.3% | viability, T/C [8] 28.8% | viability, T/C [9] 24.3% | viability, T/C [10] 17.5% | viability, T/C [11] 11.4% | viability, T/C [13] 36.4% | viability, T/C [14] 33% | viability, T/C [15] 25% | viability, T/C [16] 15.8% | viability, T/C [17] 11.2% | viability, T/C [19] 29.6% | viability, T/C [20] 27.9% | viability, T/C [21] 24.2% | viability, T/C [22] 14.8% | viability, T/C [23] 10.2% | viability, T/C [25] 31.6% | viability, T/C [26] 25.4% | viability, T/C [27] 19.5% | viability, T/C [28] 12.9% | viability, T/C [31] 29.4% | viability, T/C [32] 24.4% | viability, T/C [33] 17% | viability, T/C [34] 12.7%
active: viability, T/C [6] 8.78% | viability, T/C [12] 7.39% | viability, T/C [18] 6.81% | viability, T/C [24] 4.76% | viability, T/C [29] 9.19% | viability, T/C [30] 5.97% | viability, T/C [35] 10.2% | viability, T/C [36] 0.18%
< 31.6 nM: IC50 (second compound 0.0316 µM) | IC50 (second compound 0.1 µM) | IC50 (second compound 0.316 µM) | IC50 (second compound 1 µM) | IC50 (second compound 3.16 µM) | IC50 (second compound 10 µM)

CC1COCCN1c1cc(C2(S(C)(=N)=O)CC2)nc(-c2ccnc3[nH]ccc23)n1 (stereo unspecified) + Cc1cnc(CNC(=O)c2c(=O)c3ccc(N4CCCN(C)CC4)nc3n3c2sc2ccccc23)cn1
1600 nM: IC50 (second compound 0.0316 µM)
inactive: viability, T/C [1] 67.5% | viability, T/C [2] 64.5% | viability, T/C [3] 59.1% | viability, T/C [4] 49.6% | viability, T/C [5] 50.2% | viability, T/C [6] 29.7% | viability, T/C [7] 51.9% | viability, T/C [8] 47.3% | viability, T/C [9] 49.1% | viability, T/C [10] 41.5% | viability, T/C [11] 44.7% | viability, T/C [12] 27.4% | viability, T/C [13] 47.5% | viability, T/C [14] 46% | viability, T/C [15] 43.4% | viability, T/C [16] 41.1% | viability, T/C [17] 35.7% | viability, T/C [18] 24.4% | viability, T/C [19] 37.8% | viability, T/C [20] 40.3% | viability, T/C [21] 35.7% | viability, T/C [22] 37.8% | viability, T/C [23] 39% | viability, T/C [24] 27% | viability, T/C [25] 33.5% | viability, T/C [26] 34% | viability, T/C [27] 32.2% | viability, T/C [28] 30.6% | viability, T/C [29] 31.1% | viability, T/C [30] 22.7% | viability, T/C [31] 33.8% | viability, T/C [32] 28.8% | viability, T/C [33] 31.5% | viability, T/C [34] 29.1% | viability, T/C [35] 33.6% | viability, T/C [36] 23.9%
< 31.6 nM: IC50 (second compound 0.1 µM) | IC50 (second compound 0.316 µM) | IC50 (second compound 1 µM) | IC50 (second compound 3.16 µM) | IC50 (second compound 10 µM)

Cn1ncnc1[C@H]1c2n[nH]c(=O)c3cc(F)cc(c23)N[C@@H]1c1ccc(F)cc1 + Cc1cnc(CNC(=O)c2c(=O)c3ccc(N4CCCN(C)CC4)nc3n3c2sc2ccccc23)cn1
< 0.999 nM: IC50 (second compound 0.1 µM) | IC50 (second compound 0.316 µM) | IC50 (second compound 1 µM) | IC50 (second compound 3.16 µM) | IC50 (second compound 10 µM)
114 nM: IC50 (second compound 0.0316 µM)
inactive: viability, T/C (second compound 0.0316 µM, first compound 0.000999 µM) 64% | viability, T/C (second compound 0.0316 µM, first compound 0.00316 µM) 63.3% | viability, T/C (second compound 0.0316 µM, first compound 0.00999 µM) 63.2% | viability, T/C [1] 58.9% | viability, T/C (second compound 0.0316 µM, first compound 0.0999 µM) 46.5% | viability, T/C [3] 44.3% | viability, T/C (second compound 0.1 µM, first compound 0.000999 µM) 47.9% | viability, T/C (second compound 0.1 µM, first compound 0.00316 µM) 51.3% | viability, T/C (second compound 0.1 µM, first compound 0.00999 µM) 50.2% | viability, T/C [7] 42.2% | viability, T/C (second compound 0.1 µM, first compound 0.0999 µM) 39.3% | viability, T/C [9] 38.2% | viability, T/C (second compound 0.316 µM, first compound 0.000999 µM) 41.9% | viability, T/C (second compound 0.316 µM, first compound 0.00316 µM) 43.7% | viability, T/C (second compound 0.316 µM, first compound 0.00999 µM) 43.2% | viability, T/C [13] 37.7% | viability, T/C (second compound 0.316 µM, first compound 0.0999 µM) 37.6% | viability, T/C [15] 34.8% | viability, T/C (second compound 1 µM, first compound 0.000999 µM) 39.1% | viability, T/C (second compound 1 µM, first compound 0.00316 µM) 37.4% | viability, T/C (second compound 1 µM, first compound 0.00999 µM) 37.9% | viability, T/C [19] 35% | viability, T/C (second compound 1 µM, first compound 0.0999 µM) 34% | viability, T/C [21] 34% | viability, T/C (second compound 3.16 µM, first compound 0.000999 µM) 31.8% | viability, T/C (second compound 3.16 µM, first compound 0.00316 µM) 38.6% | viability, T/C (second compound 3.16 µM, first compound 0.00999 µM) 36.6% | viability, T/C [25] 36.7% | viability, T/C (second compound 3.16 µM, first compound 0.0999 µM) 29.4% | viability, T/C [27] 29.8% | viability, T/C (second compound 10 µM, first compound 0.000999 µM) 32.8% | viability, T/C (second compound 10 µM, first compound 0.00316 µM) 31% | viability, T/C (second compound 10 µM, first compound 0.00999 µM) 28.4% | viability, T/C [31] 30.9% | viability, T/C (second compound 10 µM, first compound 0.0999 µM) 28.9% | viability, T/C [33] 26.6%
